Results as given in patent US12065436B2, “Cardiac sarcomere inhibitors” (Cytokinetics, Inc., priority 2018, dated 2024).
Where two headings read alike, the source gives them in different places.

Columns and labels:
[1] = molecular target: bovine cardiac myofibrils (full-length cardiac myosin ATPase in the native sarcomere) (Bos taurus (Bovine), UniProt Q9BE39); experiment: Skinned bovine cardiac myofibril ATPase assay (PK/LDH-coupled); format: biochemical; conditions: Ca2+ activating to 75% of maximal rate; for CDMF75 IC15: concentration giving 15% inhibition; for IC50: read-out: CDMF75 IC50
Chain of bovine cardiac myofibrils (full-length cardiac myosin ATPase in the native sarcomere) (Q9BE39 whole entry): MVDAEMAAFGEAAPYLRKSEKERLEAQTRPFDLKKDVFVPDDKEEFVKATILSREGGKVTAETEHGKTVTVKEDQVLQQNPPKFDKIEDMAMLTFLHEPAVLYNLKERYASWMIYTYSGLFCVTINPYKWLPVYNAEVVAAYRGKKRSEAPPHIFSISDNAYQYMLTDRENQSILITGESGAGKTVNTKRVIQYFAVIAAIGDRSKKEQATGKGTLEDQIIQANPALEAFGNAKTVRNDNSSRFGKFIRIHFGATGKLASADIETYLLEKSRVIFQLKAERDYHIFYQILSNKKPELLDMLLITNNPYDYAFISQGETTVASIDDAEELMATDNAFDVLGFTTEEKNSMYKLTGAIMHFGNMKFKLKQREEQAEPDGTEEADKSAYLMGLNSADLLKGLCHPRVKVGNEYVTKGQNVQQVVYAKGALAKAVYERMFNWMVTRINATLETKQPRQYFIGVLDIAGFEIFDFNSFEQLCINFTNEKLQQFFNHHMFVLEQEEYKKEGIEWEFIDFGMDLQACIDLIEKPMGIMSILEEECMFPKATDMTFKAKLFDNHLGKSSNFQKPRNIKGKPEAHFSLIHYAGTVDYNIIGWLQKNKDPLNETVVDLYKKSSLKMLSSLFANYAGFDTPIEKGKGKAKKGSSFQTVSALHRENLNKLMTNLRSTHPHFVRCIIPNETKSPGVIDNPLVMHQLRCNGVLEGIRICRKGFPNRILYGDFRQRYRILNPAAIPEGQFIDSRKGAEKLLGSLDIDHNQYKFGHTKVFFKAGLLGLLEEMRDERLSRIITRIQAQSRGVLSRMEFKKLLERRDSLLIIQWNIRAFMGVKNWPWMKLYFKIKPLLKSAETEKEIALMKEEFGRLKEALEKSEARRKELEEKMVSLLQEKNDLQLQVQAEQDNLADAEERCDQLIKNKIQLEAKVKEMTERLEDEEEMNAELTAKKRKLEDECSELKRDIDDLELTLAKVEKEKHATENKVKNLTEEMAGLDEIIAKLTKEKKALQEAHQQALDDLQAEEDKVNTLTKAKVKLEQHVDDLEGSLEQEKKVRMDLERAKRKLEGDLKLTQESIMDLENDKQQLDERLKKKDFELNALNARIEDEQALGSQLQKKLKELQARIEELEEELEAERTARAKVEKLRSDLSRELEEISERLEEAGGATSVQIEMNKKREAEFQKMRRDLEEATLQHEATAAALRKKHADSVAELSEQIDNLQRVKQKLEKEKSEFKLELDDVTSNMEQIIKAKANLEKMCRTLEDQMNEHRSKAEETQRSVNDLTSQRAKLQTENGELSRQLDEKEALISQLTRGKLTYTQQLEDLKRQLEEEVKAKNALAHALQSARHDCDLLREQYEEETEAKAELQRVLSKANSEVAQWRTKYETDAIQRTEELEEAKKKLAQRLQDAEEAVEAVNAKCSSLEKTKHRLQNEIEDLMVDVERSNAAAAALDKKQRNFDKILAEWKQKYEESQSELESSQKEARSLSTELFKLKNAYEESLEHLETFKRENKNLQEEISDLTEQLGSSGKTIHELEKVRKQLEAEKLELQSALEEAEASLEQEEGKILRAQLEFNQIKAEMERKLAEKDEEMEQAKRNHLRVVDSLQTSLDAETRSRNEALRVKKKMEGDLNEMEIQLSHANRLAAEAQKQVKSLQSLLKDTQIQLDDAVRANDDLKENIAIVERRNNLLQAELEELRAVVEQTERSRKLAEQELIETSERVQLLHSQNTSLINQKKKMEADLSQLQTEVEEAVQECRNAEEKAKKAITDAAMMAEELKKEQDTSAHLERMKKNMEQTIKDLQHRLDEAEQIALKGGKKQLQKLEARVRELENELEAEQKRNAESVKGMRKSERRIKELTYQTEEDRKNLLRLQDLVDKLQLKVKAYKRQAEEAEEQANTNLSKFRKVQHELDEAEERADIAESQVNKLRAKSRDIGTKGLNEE
Chain of bovine cardiac myofibrils (full-length cardiac myosin ATPase in the native sarcomere) (P85100 whole entry partner): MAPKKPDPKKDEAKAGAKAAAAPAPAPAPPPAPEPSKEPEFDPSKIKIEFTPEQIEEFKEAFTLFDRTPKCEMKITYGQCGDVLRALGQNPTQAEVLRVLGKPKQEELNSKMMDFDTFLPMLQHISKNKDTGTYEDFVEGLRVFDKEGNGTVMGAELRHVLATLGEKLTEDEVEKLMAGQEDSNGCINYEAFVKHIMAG
Chain of bovine cardiac myofibrils (full-length cardiac myosin ATPase in the native sarcomere) (Q3SZE5 whole entry partner): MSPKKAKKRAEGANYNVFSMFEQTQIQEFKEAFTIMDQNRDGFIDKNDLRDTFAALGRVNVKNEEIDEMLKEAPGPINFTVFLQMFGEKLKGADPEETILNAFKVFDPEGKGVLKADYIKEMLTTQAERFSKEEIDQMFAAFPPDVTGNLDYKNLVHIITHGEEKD
In short: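 Triton-skinned bovine left-ventricle myofibrils (1 mg/mL) in PM 12 buffer (12 mM PIPES, 2 mM MgCl2, pH 6.8) with 50 μM ATP, 0.6 mM EGTA and CaCl2 set for 50% or 75% activation. Steady-state ATPase inhibition followed by PK/LDH-coupled NADH oxidation at 340 nm.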

[2] = test system: rat cardiac contractility (left ventricle fractional shortening); experiment: Echocardiography of acute effect on rat cardiac contractility, continuous IV infusion; format: in vivo, Sprague Dawley rats; conditions: plasma concentration at which fractional shortening is 50% of pre-dose baseline, estimated, read-out: IC50 (Mean ± S.D.)
Protocol: (§1) Assessment of in vivo cardiac function by echocardiography was performed in male Sprague Dawley rats under isoflurane (1-3%) anesthesia. 2-D M-mode images of the left ventricle were acquired in the parasternal long-axis view before, during, and after administration of compounds by continuous IV infusion or oral gavage. In vivo fractional shortening was determined by M-mode image analysis with the following calculation: ((End diastolic diameter−end systolic diameter)/end diastolic diameter×100). For continuous IV infusion experiments, three pre-dose baseline M-mode images were taken at 1 minute intervals prior to infusion of compound. Compounds were formulated in 50% Propylene Glycol (PG): 16% Captisol: 10% dimethylacetamide (DMA) and delivered via a jugular vein catheter at the rate of 1 mL/kg/h. During infusion, M-mode images were taken at 5 minute intervals. The infusion stopped when fractional shortening reached up to a 60% reduction from baseline. Blood samples were taken to determine the plasma concentration of the compounds. Data was reported as an estimated IC50 value, which is the concentration at which fractional shortening is 50% of the pre-dose baseline contractility.

[3] = test system: rat cardiac contractility (left ventricle fractional shortening); experiment: Echocardiography of acute effect on rat cardiac contractility, oral gavage; format: in vivo, Sprague Dawley rats; conditions: for inhibition in vivo at 2 mg/kg / IC50 / inhibition in vivo at 6 mg/kg / inhibition in vivo at 10 mg/kg / inhibition in vivo at 8 mg/kg: Rattus norvegicus; for inhibition in vivo at 2 mg/kg / inhibition in vivo at 6 mg/kg / inhibition in vivo at 10 mg/kg / inhibition in vivo at 8 mg/kg: oral gavage; for IC50 / IC10: oral dosing, estimated; for IC50: plasma concentration at which fractional shortening is 50% of pre-dose baseline; for IC10: plasma concentration at which
Protocol: as §1
For oral dosing studies, three pre-dose baseline M-Mode images were taken at 1 minute intervals prior to compound administration. Compounds were formulated in a 0.5% hydroxypropyl methylcellulose 2910 (HPMC 2910): 0.1% Tween 80 suspension and delivered as a single dose (5 mL/kg) by oral gavage. Rats were lightly anesthetized for M-Mode echocardiography measurements at select time points over a 24 hour period. Different dose levels were evaluated for each compound. The compound effect on cardiac fractional shortening at the highest dose evaluated is presented in Table D as a percent reduction of baseline fractional shortening (=100%).
Concurrent with echocardiography measurements, blood samples were taken to determine the corresponding compound plasma concentration.

[4] = 1 h, 1-2 h post dose, read-out: FS (% reduction from baseline) at 1-2 h post dose (Mean ± S.D.)
[5] = 4 h post dose, read-out: FS (% reduction from baseline) at 4 h post dose (Mean ± S.D.)

Row | Compound | CDMF75 IC15 [1] | IC50 [1] | IC50 ([2]; Rattus norvegicus) | IC50 [3] | IC10 [3] | also measured
1 | Cn1nnc(C(=O)N[C@@H]2CCc3cc(-c4noc(C5CC5)n4)ccc32)n1 [Compound 141, (R)—N-(5-(5-cyclopropyl-1,2,4-oxadiazol-3-yl)-2,3-dihydro-1H-inden-1-yl)-2-methyl-2H-tetrazole-5-carboxamide] | 0.3 µM | 0.9 µM | 1.5 ± 0.05 µM |  |  | 
2 | COCc1nc(-c2ccc3c(c2)CC[C@H]3NC(=O)c2nnn(C)n2)no1 [Compound 144, (R)-N-(5-(5-(methoxymethyl)-1,2,4-oxadiazol-3-yl)-2,3-dihydro-1H-inden-1-yl)-2-methyl-2H-tetrazole-5-carboxamide] | 0.6 µM | 2.3 µM | 3.4 ± 0.12 µM |  |  | 
3 | Cc1nc(-c2ccc3c(c2)OC[C@H]3NC(=O)c2cn(C)nc2C)no1 [Compound 158, (S)-1,3-dimethyl-N-(6-(5-methyl-1,2,4-oxadiazol-3-yl)-2,3-dihydrobenzofuran-3-yl)-1H-pyrazole-4-carboxamide] | 0.7 µM | 2.8 µM | 1.1 ± 0.03 µM |  |  | 
4 | CCc1nc(-c2ccc3c(c2)CC[C@H]3NC(=O)c2nnn(C)n2)no1 [Compound 183, (R)—N-(5-(5-ethyl-1,2,4-oxadiazol-3-yl)-2,3-dihydro-1H-inden-1-yl)-2-methyl-2H-tetrazole-5-carboxamide] | 0.3 µM | 0.9 µM | 1.2 ± 0.02 µM | 0.9 µM | 0.2 µM | inhibition in vivo at 2 mg/kg [3, 4]: 42 ± 16%; inhibition in vivo at 2 mg/kg [3, 5]: 15 ± 13%
5 | Cc1nc(-c2ccc3c(c2)OC[C@H]3NC(=O)c2cnn(C)c2)no1 [Compound 211, (S)-1-methyl-N-(6-(5-methyl-1,2,4-oxadiazol-3-yl)-2,3-dihydrobenzofuran-3-yl)-1H-pyrazole-4-carboxamide] | 0.8 µM | 2.8 µM | 5.4 ± 0.25 µM |  |  | 
6 | Cn1nccc1C(=O)N[C@@H]1COc2cc(-c3noc(C4CC4)n3)ccc21 [Compound 222, (S)—N-(6-(5-cyclopropyl-1,2,4-oxadiazol-3-yl)-2,3-dihydrobenzofuran-3-yl)-1-methyl-1H-pyrazole-5-carboxamide] | 0.3 µM | 1 µM | 1.1 ± 0.03 µM |  |  | 
7 | Cn1cc(C(=O)N[C@@H]2COc3cc(-c4noc(C5CC5)n4)ccc32)cn1 [Compound 236, (S)—N-(6-(5-cyclopropyl-1,2,4-oxadiazol-3-yl)-2,3-dihydrobenzofuran-3-yl)-1-methyl-1H-pyrazole-4-carboxamide] | 0.5 µM | 1.8 µM | 11.4 ± 0.6 µM |  |  | 
8 | CCc1nc(-c2ccc3c(c2)CC[C@H]3NC(=O)OC)no1 [Compound 304, methyl (R)-(5-(5-ethyl-1,2,4-oxadiazol-3-yl)-2,3-dihydro-1H-inden-1-yl)carbamate] | 0.2 µM | 0.7 µM | 1.7 ± 0.06 µM |  |  | 
9 | CCc1cc(-c2ccc3c(c2)OC[C@H]3NC(=O)c2nnn(C)n2)no1 [Compound 365, (S)-N-(6-(5-ethylisoxazol-3-yl)-2,3-dihydrobenzofuran-3-yl)-2-methyl-2H-tetrazole-5-carboxamide] | 0.6 µM | 2.2 µM | 4.6 ± 0.17 µM |  |  | 
10 | Cc1ncc(C(=O)N[C@@H]2CCc3cc(-c4noc(C5CC5)n4)ccc32)o1 [Compound 388, (R)-N-(5-(5-cyclopropyl-1,2,4-oxadiazol-3-yl)-2,3-dihydro-1H-inden-1-yl)-2-methyloxazole-5-carboxamide] | 0.9 µM | 2.8 µM | 5.4 ± 0.1 µM |  |  | 
11 | Cc1n[nH]cc1C(=O)N[C@@H]1CCc2cc(-c3noc(C4CC4)n3)ccc21 [Compound 420, (R)-N-(5-(5-cyclopropyl-1,2,4-oxadiazol-3-yl)-2,3-dihydro-1H-inden-1-yl)-3-methyl-1H-pyrazole-4-carboxamide] | 0.4 µM | 1.4 µM | 2.1 ± 0.05 µM |  |  | 
12 | CCc1cc(-c2ccc3c(c2)OC[C@H]3NC(=O)c2cn[nH]c2C)no1 [Compound 433, (S)—N-(6-(5-ethylisoxazol-3-yl)-2,3-dihydrobenzofuran-3-yl)-5-methyl-1H-pyrazole-4-carboxamide] | 0.3 µM | 0.9 µM | 4.3 ± 0.11 µM |  |  | 
13 | Cc1cc(-c2ccc3c(c2)OC[C@H]3NC(=O)c2cn[nH]c2C)no1 [Compound 434, (S)-5-methyl-N-(6-(5-methylisoxazol-3-yl)-2,3-dihydrobenzofuran-3-yl)-1H-pyrazole-4-carboxamide] | 0.7 µM | 2.4 µM | 9.3 ± 0.15 µM |  |  | 
14 | CCc1nc(-c2ccc3c(c2)CC[C@H]3NC(=O)c2ccc(=O)n(C)c2)no1 [Compound 589, (R)-N-(5-(5-ethyl-1,2,4-oxadiazol-3-yl)-2,3-dihydro-1H-inden-1-yl)-1-methyl-6-oxo-1,6-dihydropyridine-3-carboxamide] | 0.7 µM | 2.3 µM |  | 1.6 µM | 0.3 µM | inhibition in vivo at 6 mg/kg [3, 4]: 73 ± 12%; inhibition in vivo at 6 mg/kg [3, 5]: 46 ± 3%
15 | CCc1nc(-c2ccc3c(c2)CC[C@H]3NC(=O)c2nnc(C)o2)no1 [Compound 617, (R)-N-(5-(5-ethyl-1,2,4-oxadiazol-3-yl)-2,3-dihydro-1H-inden-1-yl)-5-methyl-1,3,4-oxadiazole-2-carboxamide] | 0.3 µM | 1.2 µM |  | 1.2 µM | 0.3 µM | inhibition in vivo at 6 mg/kg [3, 4]: 64 ± 4%; inhibition in vivo at 6 mg/kg [3, 5]: 37 ± 7%
16 | O=C(N[C@@H]1CCc2cc(-c3noc(C(F)F)n3)ccc21)c1ccnc(CO)c1 [Compound 664, (R)-N-(5-(5-(difluoromethyl)-1,2,4-oxadiazol-3-yl)-2,3-dihydro-1H-inden-1-yl)-2-(hydroxymethyl)isonicotinamide] | 0.5 µM | 1.9 µM |  | 3.3 µM | 1.2 µM | inhibition in vivo at 6 mg/kg [3, 4]: 65 ± 4%; inhibition in vivo at 6 mg/kg [3, 5]: 38 ± 5%
17 | COCc1nc(-c2ccc3c(c2)CC[C@H]3NC(=O)c2nnc(C)o2)no1 [Compound 697, (R)-N-(5-(5-(methoxymethyl)-1,2,4-oxadiazol-3-yl)-2,3-dihydro-1H-inden-1-yl)-5-methyl-1,3,4-oxadiazole-2-carboxamide] | 0.9 µM | 3.7 µM |  | 8.3 µM | 3.3 µM | inhibition in vivo at 10 mg/kg [3, 4]: 70 ± 2%; inhibition in vivo at 10 mg/kg [3, 5]: 45 ± 3%
18 | O=C(N[C@@H]1COc2cc(-c3noc(C(F)F)n3)ccc21)c1ccnc(CO)c1 [Compound 709, (S)-N-(6-(5-(difluoromethyl)-1,2,4-oxadiazol-3-yl)-2,3-dihydrobenzofuran-3-yl)-2-(hydroxymethyl)isonicotinamide] | 0.6 µM | 2.3 µM |  | 4.3 µM | 1.5 µM | inhibition in vivo at 8 mg/kg [3, 4]: 68 ± 2%; inhibition in vivo at 8 mg/kg [3, 5]: 31 ± 3%
19 | COCc1nc(-c2ccc3c(c2)CC[C@H]3NC(=O)c2ccnc(CO)c2)no1 [Compound 727, (R)-2-(hydroxymethyl)-N-(5-(5-(methoxymethyl)-1,2,4-oxadiazol-3-yl)-2,3-dihydro-1H-inden-1-yl)isonicotinamide] | 1.2 µM | 4.1 µM |  | 4.7 µM | 1.2 µM | inhibition in vivo at 8 mg/kg [3, 4]: 63 ± 1%; inhibition in vivo at 8 mg/kg [3, 5]: 33 ± 1%
20 | (R)—N-(7-(5-ethyl-1,2,4-oxadiazol-3-yl)chroman-4-yl)-1-methyl-1H-pyrazole-5-carboxamide [Compound 538] | 0.7 µM | 3.3 µM |  |  |  | IC50 [2]: 10.9 ± 0.37 µM
